Literature values in patent US20030162756A1, “Use of 2-hydroxy or 2-acetyloxy-4-trifluoromethylbenzoic acid derivatives as an agent for the treatment and prevention of mild cognitive impairment” (J. Uriach & CIA. S.A., priority 2001, published 2003).

Tested on: platelet aggregation
Details: described in U.S. Pat. No. 4,096,252; cited from earlier work

## O=C(O)c1ccc(C(F)(F)F)cc1O [HTB, 2-hydroxy-4-trifluoromethylbenzoic acid]
  activity as platelet anti-aggregant: remarkable activity as platelet anti-aggregant
